{"source": "patent US9937214B2", "about": "“Lactobacillus crispatus and application thereof” (priority 2013, dated 2018)", "system": "Lactobacillus crispatus 262-1", "test": "Antibiotic sensitivity test, agar-diffusion paper-disc method; as to Inhibition zone diameter: test concentration or dose not given here", "type": "cell-based", "settings": "for Inhibition zone diameter: paper content/sheet per antibiotic as in Table 3; for Sensitivity determination: T0 generation, three levels: sensitivity, mediation, drug resistance, criteria of reference bacteria; for Sensitivity determination (passage stability test): embodiment 6", "note": "Positions of bridges follow the written chain, without caps; N, C: chain ends. Non-standard residues stand in square brackets, D forms with d. Residues, ends and D or L forms follow the SMILES beside them. *: point of attachment. Ileψ(thiazoline)Cys = CC[C@H](C)[C@H](N)C1=N[C@H](C(=O)*)CS1; dOrn = NCCC[C@@H](N)C(=O)O", "data": [{"compound": "Cc1ncc([N+](=O)[O-])n1CCO", "note": "[Metronidazole]", "values": [{"measurement": "Inhibition zone diameter", "setting": "T0 generation of the strain", "result": 0, "unit": "mm"}, {"measurement": "Sensitivity determination", "result": "drug resistance"}, {"measurement": "Inhibition zone diameter", "setting": "T30 generation of the strain", "result": 0, "unit": "mm"}, {"measurement": "Inhibition zone diameter", "setting": "T50 generation of the strain", "result": 0, "unit": "mm"}, {"measurement": "Sensitivity determination (passage stability test)", "result": "drug resistance"}]}, {"compound": "Gentamicin", "values": [{"measurement": "Inhibition zone diameter", "setting": "T0 generation of the strain", "result": 0, "unit": "mm"}, {"measurement": "Sensitivity determination", "result": "drug resistance"}, {"measurement": "Inhibition zone diameter", "setting": "T30 generation of the strain", "result": 0, "unit": "mm"}, {"measurement": "Inhibition zone diameter", "setting": "T50 generation of the strain", "result": 0, "unit": "mm"}, {"measurement": "Sensitivity determination (passage stability test)", "result": "drug resistance"}]}, {"compound": "CCC[C@@H]1C[C@@H](C(=O)N[C@@H]([C@H]2O[C@H](SC)[C@H](O)[C@@H](O)[C@H]2O)[C@H](C)Cl)N(C)C1", "note": "[Clindamycin]", "values": [{"measurement": "Inhibition zone diameter", "setting": "T0 generation of the strain", "result": 35, "unit": "mm"}, {"measurement": "Inhibition zone diameter", "setting": "T30 generation of the strain", "result": 37, "unit": "mm"}, {"measurement": "Inhibition zone diameter", "setting": "T50 generation of the strain", "result": 36, "unit": "mm"}]}, {"compound": "NC[C@H]1O[C@H](O[C@H]2[C@H](O)[C@@H](O[C@H]3O[C@H](CO)[C@@H](O)[C@H](N)[C@H]3O)[C@H](N)C[C@@H]2N)[C@H](O)[C@@H](O)[C@@H]1O", "note": "[Kanamycin]", "values": [{"measurement": "Inhibition zone diameter", "setting": "T0 generation of the strain", "result": 0, "unit": "mm"}, {"measurement": "Inhibition zone diameter", "setting": "T30 generation of the strain", "result": 0, "unit": "mm"}, {"measurement": "Inhibition zone diameter", "setting": "T50 generation of the strain", "result": 0, "unit": "mm"}]}, {"compound": "CC[C@H](C)[C@H](N)C1=N[C@H](C(=O)N[C@@H](CC(C)C)C(=O)N[C@H](CCC(=O)O)C(=O)N[C@H](C(=O)N[C@H]2CCCCNC(=O)[C@H](CC(N)=O)NC(=O)[C@@H](CC(=O)O)NC(=O)[C@H](Cc3cnc[nH]3)NC(=O)[C@@H](Cc3ccccc3)NC(=O)[C@H]([C@@H](C)CC)NC(=O)[C@@H](CCCN)NC2=O)[C@@H](C)CC)CS1", "note": "[Bacitracin] ({Ileψ(thiazoline)Cys}-L[dE]IK[dOrn]I[dF]H[dD]N; lactam 4-C)", "values": [{"measurement": "Inhibition zone diameter", "setting": "T0 generation of the strain", "result": 0, "unit": "mm"}, {"measurement": "Sensitivity determination", "result": "drug resistance"}, {"measurement": "Inhibition zone diameter", "setting": "T30 generation of the strain", "result": 0, "unit": "mm"}, {"measurement": "Inhibition zone diameter", "setting": "T50 generation of the strain", "result": 0, "unit": "mm"}, {"measurement": "Sensitivity determination (passage stability test)", "result": "drug resistance"}]}, {"compound": "Cc1onc(-c2ccccc2)c1C(=O)N[C@@H]1C(=O)N2[C@@H]1SC(C)(C)[C@@H]2C(=O)O", "note": "[oxacillin]", "values": [{"measurement": "Inhibition zone diameter", "setting": "T0 generation of the strain", "result": 9, "unit": "mm"}, {"measurement": "Sensitivity determination", "result": "Mediation"}, {"measurement": "Inhibition zone diameter", "setting": "T30 generation of the strain", "result": 10, "unit": "mm"}, {"measurement": "Inhibition zone diameter", "setting": "T50 generation of the strain", "result": 9, "unit": "mm"}, {"measurement": "Sensitivity determination (passage stability test)", "result": "mediation"}]}, {"compound": "CN(C)[C@@H]1C(O)=C(C(N)=O)C(=O)[C@@]2(O)C(O)=C3C(=O)c4c(O)cccc4[C@@](C)(O)[C@H]3C[C@@H]12", "note": "[Tetracycline]", "values": [{"measurement": "Inhibition zone diameter", "setting": "T0 generation of the strain", "result": 38, "unit": "mm"}, {"measurement": "Inhibition zone diameter", "setting": "T30 generation of the strain", "result": 40, "unit": "mm"}, {"measurement": "Inhibition zone diameter", "setting": "T50 generation of the strain", "result": 39, "unit": "mm"}]}, {"compound": "CN[C@H](CC(C)C)C(=O)N[C@H]1C(=O)N[C@@H](CC(N)=O)C(=O)N[C@H]2C(=O)N[C@H]3C(=O)N[C@H](C(=O)N[C@H](C(=O)O)c4cc(O)cc(O)c4-c4cc3ccc4O)[C@H](O)c3ccc(c(Cl)c3)Oc3cc2cc(c3O[C@@H]2O[C@H](CO)[C@@H](O)[C@H](O)[C@H]2O[C@H]2C[C@](C)(N)[C@H](O)[C@H](C)O2)Oc2ccc(cc2Cl)[C@H]1O", "note": "[Vancomycin]", "values": [{"measurement": "Inhibition zone diameter", "setting": "T0 generation of the strain", "result": 26, "unit": "mm"}, {"measurement": "Sensitivity determination", "result": "Sensitivity"}, {"measurement": "Sensitivity determination", "setting": "listed as vancomycin", "result": "sensitivity"}, {"measurement": "Inhibition zone diameter", "setting": "T30 generation of the strain", "result": 27, "unit": "mm"}, {"measurement": "Inhibition zone diameter", "setting": "T50 generation of the strain", "result": 26, "unit": "mm"}, {"measurement": "Sensitivity determination (passage stability test)", "result": "mediation"}]}, {"compound": "CCN1CCN(C(=O)N[C@@H](C(=O)N[C@@H]2C(=O)N3[C@@H]2SC(C)(C)[C@@H]3C(=O)O)c2ccccc2)C(=O)C1=O", "note": "[Piperacillin]", "values": [{"measurement": "Inhibition zone diameter", "setting": "T0 generation of the strain", "result": 35, "unit": "mm"}, {"measurement": "Sensitivity determination", "result": "Sensitivity"}, {"measurement": "Sensitivity determination", "setting": "listed as piperacillin", "result": "sensitivity"}, {"measurement": "Inhibition zone diameter", "setting": "T30 generation of the strain", "result": 37, "unit": "mm"}, {"measurement": "Inhibition zone diameter", "setting": "T50 generation of the strain", "result": 35, "unit": "mm"}]}, {"compound": "O=C(N[C@H](CO)[C@H](O)c1ccc([N+](=O)[O-])cc1)C(Cl)Cl", "note": "[Chloramphenicol]", "values": [{"measurement": "Inhibition zone diameter", "setting": "T0 generation of the strain", "result": 35, "unit": "mm"}, {"measurement": "Sensitivity determination", "result": "Sensitivity"}, {"measurement": "Sensitivity determination", "setting": "listed as chloromycetin", "result": "sensitivity"}, {"measurement": "Inhibition zone diameter", "setting": "T30 generation of the strain", "result": 36, "unit": "mm"}, {"measurement": "Inhibition zone diameter", "setting": "T50 generation of the strain", "result": 35, "unit": "mm"}]}, {"compound": "CC1(C)S[C@@H]2[C@H](NC(=O)[C@H](N)c3ccc(O)cc3)C(=O)N2[C@H]1C(=O)O", "note": "[Amoxicillin]", "values": [{"measurement": "Inhibition zone diameter", "setting": "T0 generation of the strain", "result": 20, "unit": "mm"}, {"measurement": "Sensitivity determination", "result": "Sensitivity"}, {"measurement": "Sensitivity determination", "setting": "listed as amoxicillin", "result": "sensitivity"}, {"measurement": "Inhibition zone diameter", "setting": "T30 generation of the strain", "result": 24, "unit": "mm"}, {"measurement": "Inhibition zone diameter", "setting": "T50 generation of the strain", "result": 23, "unit": "mm"}, {"measurement": "Sensitivity determination (passage stability test)", "result": "mediation"}]}, {"compound": "C[C@@H](O)[C@H]1C(=O)N2C(C(=O)O)=C(SCCN=CN)C[C@H]12", "note": "[Imipenem]", "values": [{"measurement": "Inhibition zone diameter", "setting": "T0 generation of the strain", "result": 40, "unit": "mm"}, {"measurement": "Inhibition zone diameter", "setting": "T30 generation of the strain", "result": 40, "unit": "mm"}, {"measurement": "Inhibition zone diameter", "setting": "T50 generation of the strain", "result": 40, "unit": "mm"}]}, {"compound": "CO/N=C(\\C(=O)N[C@@H]1C(=O)N2C(C(=O)O)=C(CSc3nc(=O)c(=O)[nH]n3C)CS[C@H]12)c1csc(N)n1", "note": "[Ceftriaxone]", "values": [{"measurement": "Inhibition zone diameter", "setting": "T0 generation of the strain", "result": 29, "unit": "mm"}, {"measurement": "Sensitivity determination", "result": "Sensitivity"}, {"measurement": "Sensitivity determination", "setting": "listed as ceftriaxone", "result": "sensitivity"}, {"measurement": "Inhibition zone diameter", "setting": "T30 generation of the strain", "result": 31, "unit": "mm"}, {"measurement": "Inhibition zone diameter", "setting": "T50 generation of the strain", "result": 30, "unit": "mm"}, {"measurement": "Sensitivity determination (passage stability test)", "result": "mediation"}]}, {"compound": "CC1(C)S[C@@H]2[C@H](NC(=O)[C@H](N)c3ccccc3)C(=O)N2[C@H]1C(=O)O", "note": "[Ampicillin]", "values": [{"measurement": "Inhibition zone diameter", "setting": "T0 generation of the strain", "result": 24, "unit": "mm"}, {"measurement": "Sensitivity determination", "result": "Sensitivity"}, {"measurement": "Sensitivity determination", "setting": "listed as ampicillin", "result": "sensitivity"}, {"measurement": "Inhibition zone diameter", "setting": "T30 generation of the strain", "result": 24, "unit": "mm"}, {"measurement": "Inhibition zone diameter", "setting": "T50 generation of the strain", "result": 25, "unit": "mm"}, {"measurement": "Sensitivity determination (passage stability test)", "result": "mediation"}]}, {"compound": "CC[C@H]1OC(=O)[C@H](C)[C@@H](O[C@H]2C[C@@](C)(OC)[C@@H](O)[C@H](C)O2)[C@H](C)[C@@H](O[C@@H]2O[C@H](C)C[C@H](N(C)C)[C@H]2O)[C@](C)(O)C[C@@H](C)C(=O)[C@H](C)[C@@H](O)[C@]1(C)O", "note": "[Erythromycin]", "values": [{"measurement": "Inhibition zone diameter", "setting": "T0 generation of the strain", "result": 36, "unit": "mm"}, {"measurement": "Sensitivity determination", "result": "Sensitivity"}, {"measurement": "Sensitivity determination", "setting": "listed as erythromycin", "result": "sensitivity"}, {"measurement": "Inhibition zone diameter", "setting": "T30 generation of the strain", "result": 41, "unit": "mm"}, {"measurement": "Inhibition zone diameter", "setting": "T50 generation of the strain", "result": 39, "unit": "mm"}]}, {"compound": "Penicillin", "values": [{"measurement": "Inhibition zone diameter", "setting": "T0 generation of the strain", "result": 24, "unit": "mm"}, {"measurement": "Sensitivity determination", "result": "Mediation"}, {"measurement": "Sensitivity determination", "setting": "listed as penicillin", "result": "mediation"}, {"measurement": "Inhibition zone diameter", "setting": "T30 generation of the strain", "result": 25, "unit": "mm"}, {"measurement": "Inhibition zone diameter", "setting": "T50 generation of the strain", "result": 24, "unit": "mm"}, {"measurement": "Sensitivity determination (passage stability test)", "result": "mediation"}]}, {"compound": "CC[C@H]1OC(=O)[C@H](C)[C@@H](O[C@H]2C[C@@](C)(OC)[C@@H](O)[C@H](C)O2)[C@H](C)[C@@H](O[C@@H]2O[C@H](C)C[C@H](N(C)C)[C@H]2O)[C@](C)(O)C[C@@H](C)CN(C)[C@H](C)[C@@H](O)[C@]1(C)O", "note": "[Azithromycin]", "values": [{"measurement": "Inhibition zone diameter", "setting": "T0 generation of the strain", "result": 31, "unit": "mm"}, {"measurement": "Sensitivity determination", "result": "Sensitivity"}, {"measurement": "Sensitivity determination", "setting": "listed as azithromycin", "result": "sensitivity"}, {"measurement": "Inhibition zone diameter", "setting": "T30 generation of the strain", "result": 31, "unit": "mm"}, {"measurement": "Inhibition zone diameter", "setting": "T50 generation of the strain", "result": 30, "unit": "mm"}]}]}
